Data: patent publication US11407689B2, “Black urea enhanced efficiency controllable release fertilizer compositions” (priority 2018, dated 2022)

Experiments:
rice = experiment: Greenhouse Rice Test (rice grown in 5-gallon buckets, chlorophyll by SPAD 501 meter and rough rice yield); assay type: in vivo; settings: for Average of Chlorophyll Measurements: relative chlorophyll in leaves, SPAD 501 meter
Method: This test was conducted to compare the use of Chip Urea and Black Chip Urea to the use of ordinary granular urea for growing rice. Chip Urea, Black Chip Urea, and plain urea fertilizers were tested at Applied Chemical Technology to fertilize rice grown in 5-gallon buckets in a greenhouse. The rice was fertilized following practices used to grow rice commercially in Arkansas. These practices include fertilizing with starter fertilizers and then dry seeding the rice. Nitrogen is then applied at flooding and again when the plants enter the reproductive phase. The fertilizer is flooded into the soil when the rice plants reach the 4-leaf stage by applying the granular fertilizer to the surface and then the applying the floodwater.
The rice for the tests was grown in a climate controlled greenhouse. […] Each fertilizer was tested with five replicates placed randomly on the table. The codes for labeling the tests are given in Example 5. The bucket placement for the tests is shown in Example 6.
Top soil was purchased from Shoals Dirt near Florence, Ala. This soil was mixed and sieved using a 3 MG screen. Soil samples were taken and sent for testing to the University of Arkansas. Each five gallon bucket was filled with 39 pounds of soil and placed on the greenhouse table with no space between the buckets.
Based on the soil test results, each bucket received pre-fertilizer that included urea, triple super phosphate (TSP), potassium chloride, Epsom salts (magnesium sulfate heptahydrate), and zinc sulfate.
The TSP fertilizer was applied first. This was done by weighing out 3.58 g of TSP for each bucket and then mixing the TSP thoroughly into the top 3-4 inches of soil.
Next, the remaining starter fertilizer was applied to each bucket by making a solution of the urea, potassium chloride, zinc sulfate, and Epson salts according to the values presented in Table A of Example 5. This solution was made so that the amount of the solution needed to supply the correct amount of each nutrient to each bucket was found in 200 mL of the solution. The 200 mL of solution was then evenly poured over the surface of the soil in each bucket.
The pre-fertilizer was applied. The rice was then planted by placing 10-15 seeds on the surface of the soil and using a pencil to push the rice seed ¾ inch beneath the soil surface. The hole was filled with sand. After planting, the soil moisture was monitored. If the buckets needed to be watered, then all of the buckets are watered with the same amount of water by volume. For all of the watering throughout the tests, rain water was used. […]
The fertilizers used were products made at ACT in the pilot plant tests. […] The amounts of each fertilizer were based on the nitrogen measured in the fertilizer by LECO so that every bucket received the same amount of nitrogen. […]

[1] = tested on: arginine production in plants; settings: cited from earlier work

Row | Structure (SMILES) | Average of Chlorophyll Measurements (rice; July 19, 30 readings per bucket, five replicates) | Average of Chlorophyll Measurements (rice; September 21 (Friday before harvest)) | % Increase in Yield (rice; average yield per bucket versus plain urea) [%] | Average Rough Rice Yield per Bucket, Average Dry Weight at Harvest (rice; panicles dried at 50° C. for two days, same weight of N per bucket) [g] | Effectiveness in stimulating arginine production relative to urea [1] [times]
1 | NC(N)=O [Urea, urea] | 46.8 | 36.4 | 0.0 | 64.42 | 
2 | N#CN [acid cyanamide ion] |  |  |  |  | 20
